From ChEMBL document CHEMBL5053512, “Discovery and Preclinical Pharmacology of an Oral Bromodomain and Extra-Terminal (BET) Inhibitor Using Scaffold-Hopping and Structure-Guided Drug Design” (J Med Chem, 2021)

Columns and labels:
[1] = Antitumour activity against human JJN3R cells measured after 72 hrs by MTS assay; assay type: functional, cell-based; conditions: JJN-3R
[2] = Inhibition of c-MYC expression in human JJN3R cells measured after 4 hrs; assay type: functional, cell-based; conditions: JJN-3R
[3] = Metabolic stability in human liver microsomes assessed as parent compound remaining at 0.5 uM after 10 mins; assay type: ADME, Microsome; conditions: read-out: Stability
[4] = Permeability coefficient across basolateral to apical side in human Caco-2 cells; assay type: ADME, cell-based; conditions: read-out: permeability
[5] = Permeability coefficient across apical to basolateral side in human Caco-2 cells; assay type: ADME, cell-based; conditions: read-out: permeability
[6] = Metabolic stability in mouse liver microsomes assessed as parent compound remaining at 0.5 uM after 10 mins; assay type: ADME, Microsome; conditions: read-out: Stability
[7] = Cmax in mouse at 30 mg/kg, po; assay type: ADME, organism-based; set-up: dose 30 mg/kg, route po; conditions: in vivo
[8] = AUC (0 to 7 hrs) in mouse at 30 mg/kg, po; assay type: ADME, organism-based; set-up: time < 7 hr, dose 30 mg/kg, route po; conditions: in vivo
[9] = Permeability coefficient of the compound by PAMPA; assay type: ADME; conditions: read-out: permeability
[10] = biological target: Bromodomain-containing protein 4 (Homo sapiens, UniProt O60885); test: Inhibition of human BRD4 (1 to 477 residues) measured after 60 mins by TR-FRET assay
[11] = Efflux ratio of permeability in human Caco-2 cells; assay type: ADME, cell-based
Cytochrome P450 2D6 = Cytochrome P450 2D6 (Homo sapiens, UniProt P10635); test: Inhibition of CYP2D6 (unknown origin); assay type: ADME
Chain of Cytochrome P450 2D6 (P10635 whole entry): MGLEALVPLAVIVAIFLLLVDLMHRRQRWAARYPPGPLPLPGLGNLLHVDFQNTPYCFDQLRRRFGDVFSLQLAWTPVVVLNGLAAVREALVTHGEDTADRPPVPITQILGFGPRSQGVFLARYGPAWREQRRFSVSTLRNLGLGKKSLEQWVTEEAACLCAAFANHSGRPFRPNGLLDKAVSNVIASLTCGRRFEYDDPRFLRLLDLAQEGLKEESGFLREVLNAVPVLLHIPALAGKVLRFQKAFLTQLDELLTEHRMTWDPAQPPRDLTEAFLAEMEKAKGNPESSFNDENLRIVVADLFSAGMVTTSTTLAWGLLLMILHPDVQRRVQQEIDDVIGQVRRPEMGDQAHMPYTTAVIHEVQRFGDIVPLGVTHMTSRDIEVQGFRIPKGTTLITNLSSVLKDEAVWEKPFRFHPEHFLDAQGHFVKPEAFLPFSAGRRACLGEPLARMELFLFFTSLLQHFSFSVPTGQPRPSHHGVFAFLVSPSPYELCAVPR

Cytochrome P450 2C9 = Cytochrome P450 2C9 (Homo sapiens, UniProt P11712); test: Inhibition of CYP2C9 (unknown origin); assay type: ADME
Chain of Cytochrome P450 2C9 (P11712 whole entry): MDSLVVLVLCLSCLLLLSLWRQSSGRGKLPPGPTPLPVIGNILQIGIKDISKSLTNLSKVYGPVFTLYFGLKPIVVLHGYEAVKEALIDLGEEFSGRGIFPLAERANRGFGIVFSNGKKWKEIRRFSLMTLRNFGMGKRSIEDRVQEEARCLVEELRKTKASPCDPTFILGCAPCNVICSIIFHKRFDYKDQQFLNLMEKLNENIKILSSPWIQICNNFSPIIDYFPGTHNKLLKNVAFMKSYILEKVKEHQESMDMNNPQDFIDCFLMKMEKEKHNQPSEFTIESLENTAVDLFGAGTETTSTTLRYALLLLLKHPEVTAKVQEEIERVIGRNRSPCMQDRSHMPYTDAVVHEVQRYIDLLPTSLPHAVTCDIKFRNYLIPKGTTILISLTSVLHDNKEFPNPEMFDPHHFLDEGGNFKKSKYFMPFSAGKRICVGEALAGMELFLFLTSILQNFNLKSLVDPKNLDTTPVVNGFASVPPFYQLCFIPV

Cytochrome P450 3A4 = Cytochrome P450 3A4 (Homo sapiens, UniProt P08684); test: Inhibition of CYP3A4 (unknown origin); assay type: ADME
Chain of Cytochrome P450 3A4 (P08684 whole entry): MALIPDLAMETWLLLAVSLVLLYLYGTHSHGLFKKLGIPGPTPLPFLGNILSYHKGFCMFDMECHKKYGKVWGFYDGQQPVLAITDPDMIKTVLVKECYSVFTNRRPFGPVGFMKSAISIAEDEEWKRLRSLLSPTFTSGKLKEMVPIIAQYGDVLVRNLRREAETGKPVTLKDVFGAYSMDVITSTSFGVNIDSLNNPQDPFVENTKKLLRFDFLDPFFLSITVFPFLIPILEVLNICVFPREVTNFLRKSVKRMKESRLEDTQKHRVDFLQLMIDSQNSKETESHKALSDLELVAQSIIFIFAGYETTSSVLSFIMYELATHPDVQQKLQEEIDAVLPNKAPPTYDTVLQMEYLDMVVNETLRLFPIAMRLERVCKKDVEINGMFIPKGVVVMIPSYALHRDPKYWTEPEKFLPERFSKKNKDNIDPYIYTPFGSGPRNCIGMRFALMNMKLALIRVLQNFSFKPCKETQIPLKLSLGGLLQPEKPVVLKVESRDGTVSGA

Cytochrome P450 1A2 = Cytochrome P450 1A2 (Homo sapiens, UniProt P05177); test: Inhibition of CYP1A2 (unknown origin); assay type: ADME
[12] = biological target: Bromodomain-containing protein 3 (Homo sapiens, UniProt Q15059); test: Inhibition of human BRD3 measured by TR-FRET assay
Chain of Bromodomain-containing protein 3 (Q15059 whole entry): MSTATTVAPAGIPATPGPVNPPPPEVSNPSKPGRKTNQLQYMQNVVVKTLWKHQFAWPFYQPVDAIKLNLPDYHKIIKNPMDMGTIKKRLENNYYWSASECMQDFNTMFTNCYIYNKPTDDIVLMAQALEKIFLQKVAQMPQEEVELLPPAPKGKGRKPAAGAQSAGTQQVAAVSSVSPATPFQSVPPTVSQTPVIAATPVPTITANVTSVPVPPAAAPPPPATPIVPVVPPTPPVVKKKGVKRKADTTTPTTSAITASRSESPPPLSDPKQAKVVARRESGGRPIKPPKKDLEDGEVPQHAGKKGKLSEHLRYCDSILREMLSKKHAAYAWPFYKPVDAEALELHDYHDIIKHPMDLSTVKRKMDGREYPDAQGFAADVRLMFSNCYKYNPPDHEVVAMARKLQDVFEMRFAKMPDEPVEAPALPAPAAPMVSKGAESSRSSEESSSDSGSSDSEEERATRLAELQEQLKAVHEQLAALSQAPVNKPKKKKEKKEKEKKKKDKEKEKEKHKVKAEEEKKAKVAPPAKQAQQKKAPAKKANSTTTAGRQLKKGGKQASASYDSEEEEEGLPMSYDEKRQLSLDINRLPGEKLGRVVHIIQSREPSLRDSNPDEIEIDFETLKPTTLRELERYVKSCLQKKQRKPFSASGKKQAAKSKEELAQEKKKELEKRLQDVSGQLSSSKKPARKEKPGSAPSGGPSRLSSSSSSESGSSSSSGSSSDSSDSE

Cytochrome P450 2C19 = Cytochrome P450 2C19 (Homo sapiens, UniProt P33261); test: Inhibition of CYP2C19 (unknown origin); assay type: ADME
Chain of Cytochrome P450 2C19 (P33261 whole entry): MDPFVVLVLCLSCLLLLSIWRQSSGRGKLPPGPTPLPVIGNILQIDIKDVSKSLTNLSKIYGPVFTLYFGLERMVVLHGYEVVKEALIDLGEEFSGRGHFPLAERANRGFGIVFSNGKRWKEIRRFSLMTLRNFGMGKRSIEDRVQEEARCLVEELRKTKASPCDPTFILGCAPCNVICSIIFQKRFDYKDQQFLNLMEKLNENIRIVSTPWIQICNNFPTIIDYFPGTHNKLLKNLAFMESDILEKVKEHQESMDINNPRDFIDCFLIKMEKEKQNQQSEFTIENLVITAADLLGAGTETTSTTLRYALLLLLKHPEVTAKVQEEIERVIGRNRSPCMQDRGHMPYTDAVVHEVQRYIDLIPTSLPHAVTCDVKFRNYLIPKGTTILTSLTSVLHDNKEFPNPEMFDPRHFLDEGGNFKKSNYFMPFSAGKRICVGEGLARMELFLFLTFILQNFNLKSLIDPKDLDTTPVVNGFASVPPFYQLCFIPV

[13] = biological target: Voltage-gated inwardly rectifying potassium channel KCNH2 (Homo sapiens, UniProt Q12809); test: Inhibition of human ERG by flux assay
Chain of Voltage-gated inwardly rectifying potassium channel KCNH2 (Q12809 whole entry): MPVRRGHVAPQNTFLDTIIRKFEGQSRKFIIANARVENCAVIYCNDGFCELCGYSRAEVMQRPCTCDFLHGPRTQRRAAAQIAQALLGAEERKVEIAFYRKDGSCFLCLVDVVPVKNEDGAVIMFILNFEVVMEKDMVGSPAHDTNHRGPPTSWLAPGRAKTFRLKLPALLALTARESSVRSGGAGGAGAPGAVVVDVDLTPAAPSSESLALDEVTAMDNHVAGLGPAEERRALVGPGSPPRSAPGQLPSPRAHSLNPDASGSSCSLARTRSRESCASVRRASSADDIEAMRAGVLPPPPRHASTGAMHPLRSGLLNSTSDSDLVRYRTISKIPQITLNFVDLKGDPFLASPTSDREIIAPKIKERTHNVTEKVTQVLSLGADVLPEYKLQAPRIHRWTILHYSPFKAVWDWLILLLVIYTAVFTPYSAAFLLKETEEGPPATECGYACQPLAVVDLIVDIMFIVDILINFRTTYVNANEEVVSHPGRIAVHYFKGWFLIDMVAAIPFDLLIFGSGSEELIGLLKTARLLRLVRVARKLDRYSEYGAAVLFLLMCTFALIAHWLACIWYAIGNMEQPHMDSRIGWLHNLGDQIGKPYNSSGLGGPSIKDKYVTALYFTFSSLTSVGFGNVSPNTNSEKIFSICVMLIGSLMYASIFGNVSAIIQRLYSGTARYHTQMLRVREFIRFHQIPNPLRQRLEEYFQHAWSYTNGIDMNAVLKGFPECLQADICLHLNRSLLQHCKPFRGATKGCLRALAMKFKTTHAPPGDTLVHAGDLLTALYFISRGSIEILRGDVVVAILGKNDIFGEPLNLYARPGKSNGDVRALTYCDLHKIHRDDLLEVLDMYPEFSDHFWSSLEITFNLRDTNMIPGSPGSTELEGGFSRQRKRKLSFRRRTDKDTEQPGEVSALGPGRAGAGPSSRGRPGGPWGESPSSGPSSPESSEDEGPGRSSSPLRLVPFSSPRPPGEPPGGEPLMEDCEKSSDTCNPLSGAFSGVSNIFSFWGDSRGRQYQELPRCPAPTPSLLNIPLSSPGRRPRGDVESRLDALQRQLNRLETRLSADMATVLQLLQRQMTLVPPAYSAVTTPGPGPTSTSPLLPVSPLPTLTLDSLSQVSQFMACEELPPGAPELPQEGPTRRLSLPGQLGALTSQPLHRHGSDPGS

[14] = biological target: Bromodomain-containing protein 2 (Homo sapiens, UniProt P25440); test: Inhibition of human BRD2 measured by TR-FRET assay
Chain of Bromodomain-containing protein 2 (P25440 whole entry): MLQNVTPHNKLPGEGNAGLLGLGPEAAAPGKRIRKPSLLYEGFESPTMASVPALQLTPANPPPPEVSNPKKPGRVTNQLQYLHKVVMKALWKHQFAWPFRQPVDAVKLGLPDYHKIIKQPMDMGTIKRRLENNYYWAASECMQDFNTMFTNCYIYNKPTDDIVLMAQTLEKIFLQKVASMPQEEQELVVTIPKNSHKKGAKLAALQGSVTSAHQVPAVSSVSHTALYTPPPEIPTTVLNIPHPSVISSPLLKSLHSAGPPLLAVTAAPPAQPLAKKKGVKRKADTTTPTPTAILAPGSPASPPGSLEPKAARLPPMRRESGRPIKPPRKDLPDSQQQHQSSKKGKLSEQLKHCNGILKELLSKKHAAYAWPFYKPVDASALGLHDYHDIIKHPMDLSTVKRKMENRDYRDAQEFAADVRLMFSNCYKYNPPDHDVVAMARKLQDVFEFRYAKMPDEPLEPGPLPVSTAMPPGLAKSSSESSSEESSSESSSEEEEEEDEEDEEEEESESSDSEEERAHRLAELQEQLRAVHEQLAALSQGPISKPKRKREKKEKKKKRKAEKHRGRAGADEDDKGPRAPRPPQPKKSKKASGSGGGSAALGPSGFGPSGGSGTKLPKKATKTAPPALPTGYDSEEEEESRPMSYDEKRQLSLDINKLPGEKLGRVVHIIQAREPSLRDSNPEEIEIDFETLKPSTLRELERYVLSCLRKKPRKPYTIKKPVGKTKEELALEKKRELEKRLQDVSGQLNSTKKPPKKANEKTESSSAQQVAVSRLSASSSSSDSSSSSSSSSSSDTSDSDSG

IC50 [2]	remaining at 10 min, 0.5 µM [3]	remaining at 10 min, 0.5 µM [6]	Papp [9]	IC50 [10]	Compound	IC50 [1]	further results
6.2 nM	58%	62%	84.9 ×10⁻⁶ cm/s	–	Cc1noc(C)c1-c1cc(C(N)=O)c2c3ccc(C(C)(C)O)cc3n(Cc3ccccc3)c2c1	35 nM	Papp B→A [4]: 20.2 ×10⁻⁶ cm/s; Papp A→B [5]: 7.6 ×10⁻⁶ cm/s; Cmax [7]: 7.1 µM; AUC(0-t) at 7 h [8]: 27.1 µM·h
13 nM	9%	19%	80.9 ×10⁻⁶ cm/s	4.2 nM	Cc1noc(C)c1-c1cc(C(N)=O)c2c3cc(C(=O)N4C[C@@H](C)O[C@@H](C)C4)ccc3n(Cc3ccccc3)c2c1	38 nM	–
23 nM	–	–	74.9 ×10⁻⁶ cm/s	4.5 nM	Cc1noc(C)c1-c1cc(C(N)=O)c2c3cc(C(C)(C)O)ccc3n(Cc3ccccc3)c2c1	95 nM	–
10 nM	24%	0%	58.4 ×10⁻⁶ cm/s	5.4 nM	Cc1noc(C)c1-c1cc(C(N)=O)c2c3ccc(C(C)(C)O)cc3n([C@@H](c3ccccc3)C3CCOCC3)c2c1	46 nM	–
23 nM	75%	55%	40.2 ×10⁻⁶ cm/s	9.5 nM	Cc1noc(C)c1-c1cc(C(N)=O)c2c3ccc(C(C)(C)O)cc3n(CC3CCOCC3)c2c1	128 nM	–
0.9 nM	52%	20%	67.1 ×10⁻⁶ cm/s	1 nM	Cc1noc(C)c1-c1cc(C(N)=O)c2c3ccc(C(C)(C)O)cc3n([C@H](c3ccccc3)C3CCOCC3)c2c1	3.1 nM	Papp B→A [4]: 36.4 ×10⁻⁶ cm/s; Papp A→B [5]: 3.4 ×10⁻⁶ cm/s; Cmax [7]: 0.4 µM; AUC(0-t) at 7 h [8]: 1 µM·h
268 nM	–	–	–	131 nM	Cc1nocc1-c1cc(C(N)=O)c2c(c1)c1ccc(C(=O)N3C[C@@H](C)O[C@@H](C)C3)cc1n2CC1CC1	2960 nM	–
0.4 nM	52%	33%	70.2 ×10⁻⁶ cm/s	1.9 nM	Cc1noc(C)c1-c1cc(C(N)=O)c2c3ccc(C(C)(C)O)cc3n([C@H](c3ccc(F)cc3)C3CCOCC3)c2c1	3.1 nM	efflux ratio [11]: 6.1; Cmax [7]: 0.9 µM; AUC(0-t) at 7 h [8]: 4.3 µM·h
1160 nM	–	–	–	712 nM	Cc1noc(C)c1-c1cc(C(N)=O)c2[nH]c3cc(C(=O)N4CCOCC4)ccc3c2c1	> 2500 nM	–
291 nM	–	–	–	35 nM	Cc1nnn(C)c1-c1cc(C(N)=O)c2c(c1)c1ccc(C(=O)N3C[C@@H](C)O[C@@H](C)C3)cc1n2CC1CC1	796 nM	–
1.5 nM	54%	42%	98.4 ×10⁻⁶ cm/s	1.9 nM	Cc1noc(C)c1-c1cnc2c3ccc(C(C)(C)O)cc3n([C@H](c3ccccc3)C3CCOCC3)c2c1	8.4 nM	IC50 (Cytochrome P450 2D6): > 20000 nM; IC50 (Cytochrome P450 2C9): 4100 nM; IC50 (Cytochrome P450 3A4): > 20000 nM; IC50 (Cytochrome P450 1A2): > 20000 nM; IC50 [12]: 1.9 nM; IC50 (Cytochrome P450 2C19): 1500 nM; IC50 [13]: 51000 nM; Papp B→A [4]: 22.9 ×10⁻⁶ cm/s; Papp A→B [5]: 26.3 ×10⁻⁶ cm/s; efflux ratio [11]: 0.9; Cmax [7]: 9.2 µM; AUC(0-t) at 7 h [8]: 45.7 µM·h; IC50 [14]: 1.7 nM
51 nM	–	–	–	23 nM	Cc1noc(C)c1-c1cc(C(N)=O)c2c(c1)c1ccc(C(=O)N3C[C@@H](C)O[C@@H](C)C3)cc1n2CC1CC1	525 nM	–
93 nM	–	–	–	39 nM	Cc1noc(C)c1-c1cc(C(N)=O)c2c(c1)c1ccc(C(=O)N3CCOCC3)cc1n2CC1CC1	414 nM	–
1240 nM	–	–	–	530 nM	Cc1n[nH]c(C)c1-c1cc(C(N)=O)c2c(c1)c1ccc(C(=O)N3C[C@@H](C)O[C@@H](C)C3)cc1n2CC1CC1	7600 nM	–
3.9 nM	13%	26%	68.2 ×10⁻⁶ cm/s	1.5 nM	Cc1noc(C)c1-c1cc(C(N)=O)c2c3ccc(C(C)(C)O)cc3n(C(c3ccccc3)c3ccccc3)c2c1	11 nM	–
645 nM	–	–	–	292 nM	Cc1oncc1-c1cc(C(N)=O)c2c(c1)c1ccc(C(=O)N3C[C@@H](C)O[C@@H](C)C3)cc1n2CC1CC1	3530 nM	–
259 nM	–	–	–	69 nM	Cc1noc(C)c1-c1cc(C(N)=O)c2c3cc(C(=O)N4C[C@@H](C)O[C@@H](C)C4)ccc3n(CC3CC3)c2c1	422 nM	–
